EP0533933A1, “BISHETEROCYCLIC COMPOUND” (YAMANOUCHI PHARMACEUTICAL CO. LTD., priority 1990, dated 1992)

Tests used:
[1] = test system: KK mice; assay: Hypoglycemic activity (blood glucose decrease in KK mice, glucose oxidase method); type: in vivo; settings: percent decrease of blood glucose from the level prior to administration; dosage level of 100 mg; per os daily for 4 consecutive days, blood glucose on day 5; male KK mice on high caloric diet
Procedure: Male KK mice, 4-5 weeks old, were obtained from Japan Clea. The animals were individually put on a high caloric diet (CMF, Oriental Yeast) and the individuals weighing about 40 g were selectively used.
For determination of blood glucose, 10 µl of blood was withdrawn from the caudal vein, deproteinized with 100 µl of 0.33 N perchloric acid and centrifuged. The glucose in the supernatant was assayed by the glucose oxidase method. Groups of 6 animals showing 200 mg/dℓ or more of blood glucose were submitted to the experiment.
The test compound was suspended in 0.5% methylcellulose and administered daily per os for 4 consecutive days. Before administration and on day 5, the blood was withdrawn from the caudal vein of each animal and the blood glucose was determined by the above method.
Hypoglycemic potency was expressed in terms of percent decrease from the glucose level prior to administration of the test compound and the results were statistically evaluated at the significance level of p=0.05. * = p<0.05 ** = p<0.01 *** = p<0.001 As a result, a significant hypoglycemic effect was attained within the dose range of 10 to 300 mg/kg.

[2] = test system: Fischer rats; assay: Oral toxicity in Fischer rats, 3 consecutive days; type: in vivo; settings: Fischer rats (2 animals per sex), orally, 1,000 mg/kg for 3 consecutive days

Compound	% Inhibition [1]	abnormality after oral administration [2]
O=C1NC(=O)C(Cc2ccc(OCCCCCCCOc3ccc(CC4SC(=O)NC4=O)cc3)cc2)S1 (stereo not shown) [Example 14, 1,7-bis[4-[(2,4-dioxo-5-thiazolidinyl)methyl]phenoxy]heptane]	37%	
O=C1NC(=O)C(Cc2ccc(Cc3ccc(CC4SC(=O)NC4=O)cc3)cc2)S1 (stereo not shown) [Example 15, 4,4'-bis[(2,4-dioxo-5-thiazolidinyl)methyl]diphenylmethane]	47%	no abnormality was observed
O=C1NC(=O)C(Cc2ccc(OC/C=C/COc3ccc(CC4SC(=O)NC4=O)cc3)cc2)S1 (stereo not drawn) [Example 16, trans-1,4-bis[p-[(2,4-dioxo-5-thiazolidinyl)methyl]phenoxy]-2-butene]	51%	
